The values that follow come from patent US20240299386A1, “Novel imidazole derivatives having protein kinase inhibitory activity and uses thereof” (INDUSTRY-UNIVERSITY COOPERATION FOUNDATION HANYANG …, priority 2021, published 2024).

As usually defined, the IC50 is the concentration that inhibits the measured activity by half. The low end stands for inhibition by little substance, the high end for a need for much substance.

The target in one assay is JNK3 (Homo sapiens, UniProt P53779). Kind of assay: Measurement of JNK3 enzyme activity. The note with it: Table 1. Format: biochemical. The text has this: Experimental Example 1. Measurement of JNK3 Enzyme Activity
JNK3, sequence (P53779 whole entry, species assumed): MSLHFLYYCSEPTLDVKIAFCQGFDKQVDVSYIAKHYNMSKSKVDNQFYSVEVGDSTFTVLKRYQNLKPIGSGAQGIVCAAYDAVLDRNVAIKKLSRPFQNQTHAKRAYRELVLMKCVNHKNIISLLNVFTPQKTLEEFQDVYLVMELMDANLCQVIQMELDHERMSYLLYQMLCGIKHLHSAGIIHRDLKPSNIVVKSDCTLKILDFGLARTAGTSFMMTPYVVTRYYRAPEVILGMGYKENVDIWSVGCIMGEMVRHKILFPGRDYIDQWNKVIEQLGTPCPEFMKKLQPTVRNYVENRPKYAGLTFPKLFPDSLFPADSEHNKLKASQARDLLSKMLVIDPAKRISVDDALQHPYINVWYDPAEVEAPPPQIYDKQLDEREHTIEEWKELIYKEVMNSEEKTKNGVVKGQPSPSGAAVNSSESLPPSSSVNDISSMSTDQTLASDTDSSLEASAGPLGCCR
`CNC(=O)C1Cc2nc(-c3ccc(F)c(C(F)(F)F)c3)n(-c3ccnc(N[C@@H]4CCN(C(=O)C5CC5)C4)n3)c2C1` (stereo partly drawn) [Compound 25a, 1-(2-(((R)-1-(cyclopropanecarbonyl)pyrrolidine-3-yl)amino)pyrimidin-4-yl)-2-(4-fluoro-3-(trifluoromethyl)phenyl)-N-methyl-1,4,5,6-tetracyclopenta[d]imidazol-5-carboxamide] displayed a concentration for half-maximal inhibition (IC50) greater than 1000 nM.
Same read-out and setting: the result for `NC(=O)C1Cc2nc(-c3ccc(F)c(C(F)(F)F)c3)n(-c3ccnc(N[C@H]4CCN(C(=O)C5CC5)C4)n3)c2C1` (stereo partly drawn) [Compound 20a, 1-(2-(((S)-1-(cyclopropanecarbonyl)pyrrolidine-3-yl)amino)pyrimidin-4-yl)-2-(4-fluoro-3-(trifluoromethyl)phenyl)-1,4,5,6-tetracyclopenta[d]imidazol-5-carboxamide] reads greater than 1000 nM; that for `CCOC(=O)C1Cc2nc(-c3ccc(F)c(C(F)(F)F)c3)n(-c3ccnc(N[C@@H]4CCN(C(=O)C5CC5)C4)n3)c2C1` (stereo partly drawn) [Compound 17a, ethyl 1-(2-(((R)-1-(cyclopropanecarbonyl)pyrrolidine-3-yl)amino)pyrimidin-4-yl)-2-(4-fluoro-3-(trifluoromethyl)phenyl)-1,4,5,6-tetracyclopenta[d]imidazol-5-carboxylate], less than 30 nM.
`NC(=O)C1Cc2nc(-c3ccc(F)c(C(F)(F)F)c3)n(-c3ccnc(NC4CCCN(C(=O)C5CC5)C4)n3)c2C1` (single isomer, unassigned) [Compound 22a] returned a half-maximal inhibitory concentration (IC50) of less than 30 nM.

The assay is the same for the next values; noted with them: Table 2.
With `CCOC(=O)C1Cc2nc(-c3ccc(Cl)c(Cl)c3)n(-c3ccnc(N[C@H]4CCN(C(=O)C5CC5)C4)n3)c2C1` (stereo partly drawn) [Compound 16b, ethyl 1-(2-(((S)-1-(cyclopropanecarbonyl)pyrrolidine-3-yl)amino)pyrimidin-4-yl)-2-(3,4-dichlorophenyl)-1,4,5,6-tetracyclopenta[d]imidazol-5-carboxylate], the concentration for half-maximal inhibition (IC50) was less than 30 nM.
The same measure, in the same setting: then `CCOC(=O)C1Cc2nc(-c3ccc(Cl)c(Cl)c3)n(-c3ccnc(N[C@@H]4CCCN(C(=O)C5CC5)C4)n3)c2C1` (stereo partly drawn) [Compound 19b, ethyl 1-(2-(((R)-1-(cyclopropanecarbonyl)piperidin-3-yl)amino)pyrimidin-4-yl)-2-(3,4-dichlorophenyl)-1,4,5,6-tetracyclopenta[d]imidazol-5-carboxylate], with less than 30 nM.
The same measure, in the same setting: the result for `NC(=O)C1Cc2nc(-c3ccc(Cl)c(Cl)c3)n(-c3ccnc(N[C@@H]4CCN(C(=O)C5CC5)C4)n3)c2C1` (stereo partly drawn) [Compound 21b, 1-(2-(((R)-1-(cyclopropanecarbonyl)pyrrolidine-3-yl)amino)pyrimidin-4-yl)-2-(3,4-dichlorophenyl)-1,4,5,6-tetracyclopenta[d]imidazol-5-carboxamide] reads less than 30 nM.
As for `CCOC(=O)C1Cc2nc(-c3ccc(Cl)c(Cl)c3)n(-c3ccnc(N[C@@H]4CCN(C(=O)C5CC5)C4)n3)c2C1` (stereo partly drawn) [Compound 17b, ethyl 1-(2-(((R)-1-(cyclopropanecarbonyl)pyrrolidine-3-yl)amino)pyrimidin-4-yl)-2-(3,4-dichlorophenyl)-1,4,5,6-tetracyclopenta[d]imidazol-5-carboxylate], the half-inhibitory concentration (IC50) was less than 30 nM.

The same assay, now with this note: Table 3.
`NC(=O)C1Cc2nc(-c3ccc4ccccc4c3)n(-c3ccnc(N[C@H]4CCN(C(=O)C5CC5)C4)n3)c2C1` (stereo partly drawn) [Compound 20c, 1-(2-(((S)-1-(cyclopropanecarbonyl)pyrrolidine-3-yl)amino)pyrimidin-4-yl)-2-(naphthalen-2-yl)-1,4,5,6-tetracyclopenta[d]imidazol-5-carboxamide] registered a half-inhibitory concentration (IC50) of less than 30 nM.
Same read-out and setting: the result for `CCOC(=O)C1Cc2nc(-c3ccc4ccccc4c3)n(-c3ccnc(N[C@@H]4CCCN(C(=O)C5CC5)C4)n3)c2C1` (stereo partly drawn) [Compound 19c, ethyl 1-(2-(((R)-1-(cyclopropanecarbonyl)piperidin-3-yl)amino)pyrimidin-4-yl)-2-(naphthalen-2-yl)-1,4,5,6-tetracyclopenta[d]imidazol-5-carboxylate] reads less than 30 nM.
In turn, `CCOC(=O)C1Cc2nc(-c3ccc4ccccc4c3)n(-c3ccnc(N[C@H]4CCCN(C(=O)C5CC5)C4)n3)c2C1` (stereo partly drawn) [Compound 18c, ethyl 1-(2-(((S)-1-(cyclopropanecarbonyl)piperidin-3-yl)amino)pyrimidin-4-yl)-2-(naphthalen-2-yl)-1,4,5,6-tetracyclopenta[d]imidazol-5-carboxylate] came in with an IC50 of less than 30 nM.
`NC(=O)C1Cc2nc(-c3ccc4ccccc4c3)n(-c3ccnc(N[C@@H]4CCN(C(=O)C5CC5)C4)n3)c2C1` (stereo partly drawn) [Compound 21c, 1-(2-(((R)-1-(cyclopropanecarbonyl)pyrrolidine-3-yl)amino)pyrimidin-4-yl)-2-(naphthalen-2-yl)-1,4,5,6-tetracyclopenta[d]imidazol-5-carboxamide] returned an IC50 of less than 30 nM.

The same assay, now with this note: Table 4.
For `CCOC(=O)C1Cc2nc(-c3ccc4c(c3)OCO4)n(-c3ccnc(N[C@@H]4CCCN(C(=O)C5CC5)C4)n3)c2C1` (stereo partly drawn) [Compound 19d, ethyl 2-(benzo[d][1,3]dioxol-5-yl)-1-(2-(((R)-1-(cyclopropanecarbonyl)piperidin-3-yl)amino)pyrimidin-4-yl)-1,4,5,6-tetracyclopenta[d]imidazol-5-carboxylate], the IC50 is less than 30 nM.
In turn, `CNC(=O)C1Cc2nc(-c3ccc4c(c3)OCO4)n(-c3ccnc(NC4CCN(C(=O)C5CC5)C4)n3)c2C1` (single isomer, unassigned) [Compound 24d] came in with a half-maximal inhibitory concentration (IC50) greater than 1000 nM.
For the molecule `CNC(=O)C1Cc2nc(-c3ccc4c(c3)OCO4)n(-c3ccnc(N[C@@H]4CCN(C(=O)C5CC5)C4)n3)c2C1` (stereo partly drawn) [Compound 25d], the IC50 was less than 30 nM.
Consider `NC(=O)C1Cc2nc(-c3ccc4c(c3)OCO4)n(-c3ccnc(N[C@H]4CCN(C(=O)C5CC5)C4)n3)c2C1` (stereo partly drawn) [Compound 20d, 2-(benzo[d][1,3]dioxol-5-yl)-1-(2-(((S)-1-(cyclopropanecarbonyl)pyrrolidine-3-yl)amino)pyrimidin-4-yl)-1,4,5,6-tetracyclopenta[d]imidazol-5-carboxamide], for which the IC50 is greater than 1000 nM.
On the same count and under the same terms, the result for `CCOC(=O)C1Cc2nc(-c3ccc4c(c3)OCO4)n(-c3ccnc(N[C@H]4CCCN(C(=O)C5CC5)C4)n3)c2C1` (stereo partly drawn) [Compound 18d, ethyl 2-(benzo[d][1,3]dioxol-5-yl)-1-(2-(((S)-1-(cyclopropanecarbonyl)piperidin-3-yl)amino)pyrimidin-4-yl)-1,4,5,6-tetracyclopenta[d]imidazol-5-carboxylate] reads less than 30 nM; that for `NC(=O)C1Cc2nc(-c3ccc4c(c3)OCO4)n(-c3ccnc(N[C@@H]4CCN(C(=O)C5CC5)C4)n3)c2C1` (stereo partly drawn) [Compound 21d, 2-(benzo[d][1,3]dioxol-5-yl)-1-(2-(((R)-1-(cyclopropanecarbonyl)pyrrolidine-3-yl)amino)pyrimidin-4-yl)-1,4,5,6-tetracyclopenta[d]imidazol-5-carboxamide], greater than 1000 nM.
Still for that read-out and setting: the result for `NC(=O)C1Cc2nc(-c3ccc4c(c3)OCO4)n(-c3ccnc(N[C@@H]4CCCN(C(=O)C5CC5)C4)n3)c2C1` (stereo partly drawn) [Compound 23d] reads less than 30 nM.

The assay is the same for the next values; noted with them: Table 5.
With `CNC(=O)C1Cc2nc(-c3ccc4c(c3)CCO4)n(-c3ccnc(N[C@H]4CCCN(C(=O)C5CC5)C4)n3)c2C1` (stereo partly drawn) [Compound 26e, 1-(2-(((S)-1-(cyclopropanecarbonyl)piperidin-3-yl)amino)pyrimidin-4-yl)-2-(2,3-dihydrobenzofuran-5-yl)-N-methyl-1,4,5,6-tetracyclopenta[d]imidazol-5-carboxamide], the half-maximal inhibitory concentration (IC50) was greater than 1000 nM.
Still for that read-out and setting: then `NC(=O)C1Cc2nc(-c3ccc4c(c3)CCO4)n(-c3ccnc(N[C@H]4CCCN(C(=O)C5CC5)C4)n3)c2C1` (stereo partly drawn) [Compound 22e, 1-(2-(((S)-1-(cyclopropanecarbonyl)piperidin-3-yl)amino)pyrimidin-4-yl)-2-(2,3-dihydrobenzofuran-5-yl)-1,4,5,6-tetracyclopenta[d]imidazol-5-carboxamide], with less than 30 nM.
